Source: patent US9744189B1, “Compositions of lithium salts and methods of use” (University of South Florida, priority 2013, dated 2017)
Where two headings read alike, the source gives them in different places.

Experiments:
[1] = for time of peak lithium plasma level (FIG. 2-3): post-dose; for AUC(0-72): 0-72 h; for TMAX: noncompartmental analysis
Experimental: (§1) Male Sprague Dawley rats weighing 200-250 grams were housed in a vivarium with a 12 hour light-dark cycle. The rats were allowed to acclimate for a period of one week before any experiments were carried out, and were allowed free access to food and water throughout the experiment.
(§2) Animals in each treatment group were euthanized at 2, 24, 48, and 72 hours (n=3/time point) and blood was collected by cardiac puncture and carefully perfused with a pressure-controlled pump to maintain microvasculature integrity before removing brain tissue. Blood was centrifuged at 1600×g at room temperature for 10 minutes and plasma was separated. A 500 μl aliquot was diluted 10 fold in a 5% TCA and 10% IPA solution, vortexed and allowed to sit for 10 minutes in order to precipitate proteins. These aliquots were centrifuged at 3000×g for 30 minutes and the supernatant was transferred to clean tubes prior to measuring lithium content using atomic absorption spectroscopy (AAS). Brains were rinsed with PBS, weighed, and an equal volume of concentrated HNO3 was added. The brains were heated in nitric acid solution for 1 hour, allowed to cool to room temperature, then centrifuged at 3000×g for 1 hour. The supernatant was removed and diluted 10 fold in 10% IPA prior to measuring lithium content using AAS.
(§3) The reported parameters include CMAX, TMAX, area under curve (AUC), and apparent terminal half-life (HL_Lambda_z).
(§4) Lithium was measured using atomic absorption spectroscopy (AAS) (Shimadzu AA-6200; Shimadzu Scientific Instruments, Inc., Columbia, Md.). Peak height measurements were carried out referring to values obtained for standards of known concentrations. Lithium measurements were plotted using GraphPad PRISM software (GraphPad Software, Inc., La Jolla, Calif.) as mean±SEM and two tailed t-tests were used to assess the statistical significance at each time point for the pharmacokinetic curves. The criterion for rejection of the null hypothesis was p<0.05.

[2] = rats; carbonate vs chloride vs orotate; cited from earlier work
[3] = for time of peak brain lithium level (FIG. 4-5): post-dose; for AUC(0-72): 0-72 h; for TMAX: noncompartmental analysis
Experimental: as §1, §2, §3, §4

[4] = previous reports; cited from earlier work
in vivo [5] = details: male, Sprague-Dawley, rat, plasma, oral, 4 mEq/kg
Experimental: as §1, §2, §3, §4

in vivo [6] = details: male, Sprague-Dawley, rat, brain, oral, 4 mEq/kg
Experimental: as §1, §2, §3, §4

[7] = cited from earlier work
[8] = Blood, rats, 4 mEq/kg oral gavage
[9] = Brain, rats, 4 mEq/kg oral gavage

Compound	lithium plasma level by 48 hours ([1]; plasma)	lithium plasma level by 72 hours ([1]; plasma)	time of peak lithium plasma level (FIG. 2-3) ([1]; plasma, rats)	differences in uptake, distribution and excretion of the lithium ion [2]	brain lithium level at 24 hours ([3]; brain)	brain lithium level by 72 hours ([3]; brain)	time of peak brain lithium level (FIG. 4-5) ([3]; brain, rats) [h]	CMAX [1, 8] [µg/mL]	AUC(0-72) [1, 8] [µg·h/mL]	TMAX [1, 8] [h]	AUC(0-72) [3, 9] [µg·h/g]	TMAX [3, 9] [h]	further results
O=C([O-])[O-].[Li+].[Li+] [lithium carbonate, reference compound]	about 0.5 μg/ml	around 0 μg/ml	24 h	no differences	8 µg/mL	about 0.5 μg/ml	24						peak lithium plasma level relative to lithium lactate ([1]; plasma, 24 hours): about 2.5 times; lithium plasma level at 24 hours (peak) ([1]; plasma, 24 hours post-dose): about 12 μg/ml; brain lithium level at 48 hours ([3]; brain, 48 hours): about 3.8 μg/ml; time to elimination [4]: ≤ 48 h
O=C([O-])c1ccccc1O.[Li+] [Lithium Salicylate, lithium salicylate]			around 48 hours				48	2.21	121.8	24	153.1	48	concentration at 24 h (in vivo [5]): 2100 ng/mL; concentration at 48 h (in vivo [5]): 2000 ng/mL; concentration at 72 h (in vivo [5]): ~250 ng/mL; concentration at 24 h (in vivo [6]): ~2500 ng/mL; concentration at 48 h (in vivo [6]): 3000 ng/mL; concentration at 72 h (in vivo [6]): 2000 ng/mL
O=C([O-])c1cc(=O)[nH]c(=O)[nH]1.[Li+] [lithium orotate]				no differences									
CC(O)C(=O)[O-].[Li+] (stereo not drawn) [Lithium Lactate, lithium lactate]	about 0.5 μg/ml	around 0 μg/ml	24 h		around 4 μg/ml	negligible levels	24	4.54	157.2	24	152.0	24	HL_Lambda_z (apparent terminal half-life) [1, 8]: 6.9 h; HL_Lambda_z (apparent terminal half-life) [3, 9]: 13.0 h
[Cl-].[Li+] [lithium chloride]				no differences									
[Li] [lithium]													elimination half-life ([7]; acute treatment): 24 h; CNS levels of lithium relative to plasma levels ([7]; in vivo): approximately 40%; serum levels considered toxic ([7]; in vivo): ≥ 2.0; serum levels that increase the likelihood of toxicity and detrimental effects ([7]; in vivo): greater than 1.5 mEq/l; time to peak plasma levels after overdoses ([7]; overdose): 72 h; elimination half-life ([7]; some chronically treated individuals): ≤ 60 h
